ChEMBL document CHEMBL4014293, “Highly oxygenated antiausterity agents from the leaves of Uvaria dac” (2017)
Calls of active or inactive are those of the source. No cut-off for these calls is given here.

How the values were obtained:
KLM1 = experiment: Antiausteritic activity human KLM1 cells in nutrient deprived medium after 24 hrs by WST8 assay; format: functional
CAPAN-1 = experiment: Antiausteritic activity against human Capan1 cells in nutrient deprived medium after 24 hrs by WST8 assay; format: functional
MIA PaCa-2 = experiment: Antiausteritic activity against human MIAPaCa2 cells in nutrient deprived medium after 24 hrs by WST8 assay; format: functional
PSN1 = experiment: Antiausteritic activity against human PSN1 cells in nutrient deprived medium after 24 hrs by WST8 assay; format: functional
PANC-1 [1] = experiment: Antiausteritic activity against human PANC1 cells in nutrient deprived medium assessed as induction of morphological changes at 25 to 50 uM after 24 hrs by ethidium bromide/acridine orange staining based fluorescent/phase contrast microscopic method; format: functional, cell-based
PANC-1 [2] = experiment: Antiausteritic activity against human PANC1 cells in nutrient deprived medium after 24 hrs by WST8 assay; format: functional

Structure (SMILES)	Activity (KLM1)	Activity (CAPAN-1)	PC50 (CAPAN-1) [µM]	Activity (MIA PaCa-2)	PC50 (MIA PaCa-2) [µM]	Activity (PSN1)	PC50 (PSN1) [µM]	Activity (PANC-1 [1])	Activity (PANC-1 [2])	PC50 (PANC-1 [2]) [µM]
O=C(OCC1=C[C@@H](OC(=O)c2ccccc2)[C@H](O)[C@@H](OC(=O)c2ccccc2)[C@@H]1O)c1ccccc1	Dose-dependent effect	Dose-dependent effect	73	Dose-dependent effect	29.1	Dose-dependent effect	9.7	Active	Dose-dependent effect	20.1
O=C(OCC1=C[C@@H](OC(=O)c2ccccc2)[C@H](OC(=O)c2ccccc2)[C@@H](O)[C@@H]1O)c1ccccc1	Dose-dependent effect	Dose-dependent effect	–	Dose-dependent effect	–	Dose-dependent effect	–	–	Dose-dependent effect	–
CCCCCCCCCCCCCCCCCC(=O)O[C@@H]1C=C(COC(=O)c2ccccc2)[C@@H](O)[C@H](OC(=O)c2ccccc2)[C@H]1O	Dose-dependent effect	Dose-dependent effect	–	Dose-dependent effect	–	Dose-dependent effect	–	–	Dose-dependent effect	–
CCCCCCCCCCCCCCCCCC(=O)O[C@@H]1C=C(COC(=O)c2ccccc2)[C@@H](O)[C@H](O)[C@H]1OC(=O)c1ccccc1	Dose-dependent effect	Dose-dependent effect	–	Dose-dependent effect	–	Dose-dependent effect	–	–	Dose-dependent effect	–
